Patent US8575125B2, “Selective inhibitors of CB2 receptor expression and/or activity for the treatment of obesity and obesity-related disorders” (Institut National de la Sante et de la Recherche Medicale …, priority 2007, dated 2013)

Columns and labels:
[1] = tested on: ob/ob mice; test: Impact of CB2 antagonist on epididymal fat inflammatory gene expression in obese ob/ob mice (quantitative RT-PCR); type: in vivo, mouse; details: 1 mg/kg daily intraperitoneal over 17 days, six week-old ob/ob mice
Description: Animals and Experimental Design: Experimental protocols were conducted in accordance with French government policies (Services véterinaires de la Santé et de la production animale, Ministère français de l'Agriculture). Animals were housed under 12 hours of light/12 hours of dark cycle, in a temperature-controlled environment. The impact of the CB2 antagonist AM630 was evaluated in 6 week-old male obese Lep^Ob/Lep^Ob male mice (ob/ob) and lean Lep^Ob+/Lep^Ob counterparts (ob+/ob). Mice received an 17 day-course of daily intraperitoneal injection of 1 mg/kg AM630 (n=10 ob/ob and n=5 ob+/ob) or vehicle (n=8 ob/ob and n=5 ob+/ob). AM630 (Tocris) was freshly dissolved in a vehicle solution containing 1 drop of Tween 80 in 0.1 ml dimethylsulfoxide (DMSO), sonicated, and further diluted 50 times in NaCl 9‰. Body weight and food intake were measured daily. Mice were sacrificed after overnight fasting. White epididymal adipose tissue was removed, weighed and either fixed in buffered formalin, or snap frozen in liquid nitrogen. All samples were stored at −80° C. until use.
RNA preparation and RT-PCR: Total RNA was extracted from mice epididymal fat using RNeasy® Lipid Tissue Mini kit (QIAGEN). Quantitative RT-PCR was carried out on a Light Cycler (Roche Diagnostics), as previously described.
The PCR amplified products were analyzed on a 2% agarose gel, and sequenced.

[2] = tested on: overweight and obese patients; details: 4 clinical studies, more than 6000 overweight and obese patients; cited from earlier work

SMILES | fat inflammatory response ([1]; epididymal fat, vs vehicle) | F4/80 mRNA expression in epididymal fat ([1]; vs vehicle (FIG. 16, p<0.05)) | MCP-1 mRNA expression in epididymal fat ([1]; vs vehicle (FIG. 16, p<0.05)) | TNF-alpha mRNA expression in epididymal fat ([1]; vs vehicle (FIG. 16, p<0.05)) | efficacy with regard to weight loss and reduction of the associated cardiometabolic risks [2]
COc1ccc(C(=O)c2c(C)n(CCN3CCOCC3)c3cc(I)ccc23)cc1 [AM 630] | reduced | lesser induction | lesser induction | lesser induction | –
Cc1c(C(=O)NN2CCCCC2)nn(-c2ccc(Cl)cc2Cl)c1-c1ccc(Cl)cc1 [rimonabant, Rimonabant] | – | – | – | – | consistent efficacy
